From the supplement of paper PMC8882468

These molecules were tested on HCI-012 (organoid from a breast cancer xenograft) (assay: CTG-3D luminescence at 96 h relative to day-0 seeding control (ratio to day 0); higher = more growth / less cytotoxicity; PDxO 3D drug screen, 96 h, CTG-3D normalised to day-0 seeding control.). Settings: 0.1 µM; days in culture: 143.
For `CC(C)(C(=O)NCC(F)(F)C(F)(F)F)C(=O)N[C@@H]1C(=O)Nc2ccccc2-c2ccccc21`, the “CTG-3D luminescence at 96 h” value was 2.2. For `CCN(c1cc(C#CCN2CCOCC2)cc(C(=O)NCc2c(C)cc(C)[nH]c2=O)c1C)[C@H]1CC[C@H](N(C)CCOC)CC1`, the “CTG-3D luminescence at 96 h” value was 2.99. `NC(=O)Nc1cc(-c2cccc(F)c2)sc1C(=O)N[C@H]1CCCNC1` [AZD7762] was tested, and the “CTG-3D luminescence at 96 h” value was 2.67. With `O=C(/C=C/c1cccnc1)NCCCCC1CCN(C(=O)c2ccccc2)CC1` [FK866] the “CTG-3D luminescence at 96 h” value was 0.0872. In the case of `CCc1c2c(nc3ccc(O)cc13)-c1cc3c(c(=O)n1C2)COC(=O)[C@]3(O)CC` [SN-38], the “CTG-3D luminescence at 96 h” value is reported as 0.0623. For `CCN1CCN(Cc2ccc(Nc3ncc(F)c(-c4cc(F)c5nc(C)n(C(C)C)c5c4)n3)nc2)CC1` [abemaciclib], the “CTG-3D luminescence at 96 h” value was 2.72. For `C=CCn1c(=O)c2cnc(Nc3ccc(N4CCN(C)CC4)cc3)nc2n1-c1cccc(C(C)(C)O)n1` [adavosertib], the “CTG-3D luminescence at 96 h” value was 2.56.

Same assay, conditions: 0.1 µM; days in culture: 162
In the case of `CC(C)(C(=O)NCC(F)(F)C(F)(F)F)C(=O)N[C@@H]1C(=O)Nc2ccccc2-c2ccccc21`, the “CTG-3D luminescence at 96 h” value is reported as 2.46. In the case of `CCN(c1cc(C#CCN2CCOCC2)cc(C(=O)NCc2c(C)cc(C)[nH]c2=O)c1C)[C@H]1CC[C@H](N(C)CCOC)CC1`, the “CTG-3D luminescence at 96 h” value is reported as 2.73. `NC(=O)Nc1cc(-c2cccc(F)c2)sc1C(=O)N[C@H]1CCCNC1` [AZD7762] was tested, and the “CTG-3D luminescence at 96 h” value was 2.83. With `O=C(/C=C/c1cccnc1)NCCCCC1CCN(C(=O)c2ccccc2)CC1` [FK866] the “CTG-3D luminescence at 96 h” value was 0.0723. With `CCc1c2c(nc3ccc(O)cc13)-c1cc3c(c(=O)n1C2)COC(=O)[C@]3(O)CC` [SN-38] the “CTG-3D luminescence at 96 h” value was 0.0642. In the case of `CCN1CCN(Cc2ccc(Nc3ncc(F)c(-c4cc(F)c5nc(C)n(C(C)C)c5c4)n3)nc2)CC1` [abemaciclib], the “CTG-3D luminescence at 96 h” value is reported as 3.34. With `C=CCn1c(=O)c2cnc(Nc3ccc(N4CCN(C)CC4)cc3)nc2n1-c1cccc(C(C)(C)O)n1` [adavosertib] the “CTG-3D luminescence at 96 h” value was 3.54.

Same assay, conditions: 0.1 µM; days in culture: 201
With `CC(C)(C(=O)NCC(F)(F)C(F)(F)F)C(=O)N[C@@H]1C(=O)Nc2ccccc2-c2ccccc21` the “CTG-3D luminescence at 96 h” value was 1.9. With `CCN(c1cc(C#CCN2CCOCC2)cc(C(=O)NCc2c(C)cc(C)[nH]c2=O)c1C)[C@H]1CC[C@H](N(C)CCOC)CC1` the “CTG-3D luminescence at 96 h” value was 2.18. `NC(=O)Nc1cc(-c2cccc(F)c2)sc1C(=O)N[C@H]1CCCNC1` [AZD7762] was tested, and the “CTG-3D luminescence at 96 h” value was 1.39. With `O=C(/C=C/c1cccnc1)NCCCCC1CCN(C(=O)c2ccccc2)CC1` [FK866] the “CTG-3D luminescence at 96 h” value was 0.0389. For `CCc1c2c(nc3ccc(O)cc13)-c1cc3c(c(=O)n1C2)COC(=O)[C@]3(O)CC` [SN-38], the “CTG-3D luminescence at 96 h” value was 0.0348. In the case of `CCN1CCN(Cc2ccc(Nc3ncc(F)c(-c4cc(F)c5nc(C)n(C(C)C)c5c4)n3)nc2)CC1` [abemaciclib], the “CTG-3D luminescence at 96 h” value is reported as 1.73. `C=CCn1c(=O)c2cnc(Nc3ccc(N4CCN(C)CC4)cc3)nc2n1-c1cccc(C(C)(C)O)n1` [adavosertib] was tested, and the “CTG-3D luminescence at 96 h” value was 1.66.

Same assay, conditions: 1 µM; days in culture: 143
In the case of `CC(C)(C(=O)NCC(F)(F)C(F)(F)F)C(=O)N[C@@H]1C(=O)Nc2ccccc2-c2ccccc21`, the “CTG-3D luminescence at 96 h” value is reported as 2.22. In the case of `CCN(c1cc(C#CCN2CCOCC2)cc(C(=O)NCc2c(C)cc(C)[nH]c2=O)c1C)[C@H]1CC[C@H](N(C)CCOC)CC1`, the “CTG-3D luminescence at 96 h” value is reported as 3.02. In the case of `NC(=O)Nc1cc(-c2cccc(F)c2)sc1C(=O)N[C@H]1CCCNC1` [AZD7762], the “CTG-3D luminescence at 96 h” value is reported as 1.75. For `O=C(/C=C/c1cccnc1)NCCCCC1CCN(C(=O)c2ccccc2)CC1` [FK866], the “CTG-3D luminescence at 96 h” value was 0.0769. In the case of `CCc1c2c(nc3ccc(O)cc13)-c1cc3c(c(=O)n1C2)COC(=O)[C@]3(O)CC` [SN-38], the “CTG-3D luminescence at 96 h” value is reported as 0.0329. In the case of `CCN1CCN(Cc2ccc(Nc3ncc(F)c(-c4cc(F)c5nc(C)n(C(C)C)c5c4)n3)nc2)CC1` [abemaciclib], the “CTG-3D luminescence at 96 h” value is reported as 1.59. For `C=CCn1c(=O)c2cnc(Nc3ccc(N4CCN(C)CC4)cc3)nc2n1-c1cccc(C(C)(C)O)n1` [adavosertib], the “CTG-3D luminescence at 96 h” value was 2.11.

Same assay, conditions: 1 µM; days in culture: 162
In the case of `CC(C)(C(=O)NCC(F)(F)C(F)(F)F)C(=O)N[C@@H]1C(=O)Nc2ccccc2-c2ccccc21`, the “CTG-3D luminescence at 96 h” value is reported as 1.82. In the case of `CCN(c1cc(C#CCN2CCOCC2)cc(C(=O)NCc2c(C)cc(C)[nH]c2=O)c1C)[C@H]1CC[C@H](N(C)CCOC)CC1`, the “CTG-3D luminescence at 96 h” value is reported as 2.39. In the case of `NC(=O)Nc1cc(-c2cccc(F)c2)sc1C(=O)N[C@H]1CCCNC1` [AZD7762], the “CTG-3D luminescence at 96 h” value is reported as 1.99. `O=C(/C=C/c1cccnc1)NCCCCC1CCN(C(=O)c2ccccc2)CC1` [FK866] was tested, and the “CTG-3D luminescence at 96 h” value was 0.0448. For `CCc1c2c(nc3ccc(O)cc13)-c1cc3c(c(=O)n1C2)COC(=O)[C@]3(O)CC` [SN-38], the “CTG-3D luminescence at 96 h” value was 0.0329. In the case of `CCN1CCN(Cc2ccc(Nc3ncc(F)c(-c4cc(F)c5nc(C)n(C(C)C)c5c4)n3)nc2)CC1` [abemaciclib], the “CTG-3D luminescence at 96 h” value is reported as 1.83. With `C=CCn1c(=O)c2cnc(Nc3ccc(N4CCN(C)CC4)cc3)nc2n1-c1cccc(C(C)(C)O)n1` [adavosertib] the “CTG-3D luminescence at 96 h” value was 2.56.

Same assay, conditions: 1 µM; days in culture: 201
`CC(C)(C(=O)NCC(F)(F)C(F)(F)F)C(=O)N[C@@H]1C(=O)Nc2ccccc2-c2ccccc21` was tested, and the “CTG-3D luminescence at 96 h” value was 2.48. For `CCN(c1cc(C#CCN2CCOCC2)cc(C(=O)NCc2c(C)cc(C)[nH]c2=O)c1C)[C@H]1CC[C@H](N(C)CCOC)CC1`, the “CTG-3D luminescence at 96 h” value was 2.33. In the case of `NC(=O)Nc1cc(-c2cccc(F)c2)sc1C(=O)N[C@H]1CCCNC1` [AZD7762], the “CTG-3D luminescence at 96 h” value is reported as 2.14. `O=C(/C=C/c1cccnc1)NCCCCC1CCN(C(=O)c2ccccc2)CC1` [FK866] was tested, and the “CTG-3D luminescence at 96 h” value was 0.128. `CCc1c2c(nc3ccc(O)cc13)-c1cc3c(c(=O)n1C2)COC(=O)[C@]3(O)CC` [SN-38] was tested, and the “CTG-3D luminescence at 96 h” value was 0.0248. With `CCN1CCN(Cc2ccc(Nc3ncc(F)c(-c4cc(F)c5nc(C)n(C(C)C)c5c4)n3)nc2)CC1` [abemaciclib] the “CTG-3D luminescence at 96 h” value was 2.31. For `C=CCn1c(=O)c2cnc(Nc3ccc(N4CCN(C)CC4)cc3)nc2n1-c1cccc(C(C)(C)O)n1` [adavosertib], the “CTG-3D luminescence at 96 h” value was 2.25.

Same assay, conditions: 10 µM; days in culture: 143
`CC(C)(C(=O)NCC(F)(F)C(F)(F)F)C(=O)N[C@@H]1C(=O)Nc2ccccc2-c2ccccc21` was tested, and the “CTG-3D luminescence at 96 h” value was 2.41. `CCN(c1cc(C#CCN2CCOCC2)cc(C(=O)NCc2c(C)cc(C)[nH]c2=O)c1C)[C@H]1CC[C@H](N(C)CCOC)CC1` was tested, and the “CTG-3D luminescence at 96 h” value was 3.17. For `NC(=O)Nc1cc(-c2cccc(F)c2)sc1C(=O)N[C@H]1CCCNC1` [AZD7762], the “CTG-3D luminescence at 96 h” value was 0.0896. In the case of `O=C(/C=C/c1cccnc1)NCCCCC1CCN(C(=O)c2ccccc2)CC1` [FK866], the “CTG-3D luminescence at 96 h” value is reported as 0.0863. `CCc1c2c(nc3ccc(O)cc13)-c1cc3c(c(=O)n1C2)COC(=O)[C@]3(O)CC` [SN-38] was tested, and the “CTG-3D luminescence at 96 h” value was 0.0255. For `CCN1CCN(Cc2ccc(Nc3ncc(F)c(-c4cc(F)c5nc(C)n(C(C)C)c5c4)n3)nc2)CC1` [abemaciclib], the “CTG-3D luminescence at 96 h” value was 0.427. For `C=CCn1c(=O)c2cnc(Nc3ccc(N4CCN(C)CC4)cc3)nc2n1-c1cccc(C(C)(C)O)n1` [adavosertib], the “CTG-3D luminescence at 96 h” value was 0.226.

Same assay, conditions: 10 µM; days in culture: 162
With `CC(C)(C(=O)NCC(F)(F)C(F)(F)F)C(=O)N[C@@H]1C(=O)Nc2ccccc2-c2ccccc21` the “CTG-3D luminescence at 96 h” value was 2.59. With `CCN(c1cc(C#CCN2CCOCC2)cc(C(=O)NCc2c(C)cc(C)[nH]c2=O)c1C)[C@H]1CC[C@H](N(C)CCOC)CC1` the “CTG-3D luminescence at 96 h” value was 3.19. With `NC(=O)Nc1cc(-c2cccc(F)c2)sc1C(=O)N[C@H]1CCCNC1` [AZD7762] the “CTG-3D luminescence at 96 h” value was 0.16. With `O=C(/C=C/c1cccnc1)NCCCCC1CCN(C(=O)c2ccccc2)CC1` [FK866] the “CTG-3D luminescence at 96 h” value was 0.085. With `CCc1c2c(nc3ccc(O)cc13)-c1cc3c(c(=O)n1C2)COC(=O)[C@]3(O)CC` [SN-38] the “CTG-3D luminescence at 96 h” value was 0.0269. In the case of `CCN1CCN(Cc2ccc(Nc3ncc(F)c(-c4cc(F)c5nc(C)n(C(C)C)c5c4)n3)nc2)CC1` [abemaciclib], the “CTG-3D luminescence at 96 h” value is reported as 1.5. For `C=CCn1c(=O)c2cnc(Nc3ccc(N4CCN(C)CC4)cc3)nc2n1-c1cccc(C(C)(C)O)n1` [adavosertib], the “CTG-3D luminescence at 96 h” value was 0.304.

Same assay, conditions: 10 µM; days in culture: 201
`CC(C)(C(=O)NCC(F)(F)C(F)(F)F)C(=O)N[C@@H]1C(=O)Nc2ccccc2-c2ccccc21` was tested, and the “CTG-3D luminescence at 96 h” value was 1.51. With `CCN(c1cc(C#CCN2CCOCC2)cc(C(=O)NCc2c(C)cc(C)[nH]c2=O)c1C)[C@H]1CC[C@H](N(C)CCOC)CC1` the “CTG-3D luminescence at 96 h” value was 1.83. With `NC(=O)Nc1cc(-c2cccc(F)c2)sc1C(=O)N[C@H]1CCCNC1` [AZD7762] the “CTG-3D luminescence at 96 h” value was 0.141. For `O=C(/C=C/c1cccnc1)NCCCCC1CCN(C(=O)c2ccccc2)CC1` [FK866], the “CTG-3D luminescence at 96 h” value was 0.0435. With `CCc1c2c(nc3ccc(O)cc13)-c1cc3c(c(=O)n1C2)COC(=O)[C@]3(O)CC` [SN-38] the “CTG-3D luminescence at 96 h” value was 0.0127. `CCN1CCN(Cc2ccc(Nc3ncc(F)c(-c4cc(F)c5nc(C)n(C(C)C)c5c4)n3)nc2)CC1` [abemaciclib] was tested, and the “CTG-3D luminescence at 96 h” value was 1.47. `C=CCn1c(=O)c2cnc(Nc3ccc(N4CCN(C)CC4)cc3)nc2n1-c1cccc(C(C)(C)O)n1` [adavosertib] was tested, and the “CTG-3D luminescence at 96 h” value was 0.091.
